IC50 data for 71 compounds are collected here from patent US10774051B2, “6-membered heterocyclic derivatives and pharmaceutical composition comprising the same” (Shionogi & Co., Ltd., priority 2015, dated 2020).

The term IC50 denotes the point on the concentration scale where inhibition reaches its midpoint.

Where only a bound is given, the exact number is not on record here.

One assay addresses human P2X7 receptor (Homo sapiens, UniProt Q99572, R270H/Y155H). Kind of assay: Evaluation of human P2X7 receptor inhibitory activity (Yo-Pro uptake, BzATP stimulation, FLIPR TETRA). The class given is cell-based. Conditions: 1321N1 cells stably expressing human P2X7 receptor; BzATP stimulation, Yo-Pro uptake; read-out: IC50 (antagonistic activity for the human P2X7 receptor). In outline: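 1321N1 cells stably expressing human P2X7 (T606C/G952A SNP variant), in HBSS buffer pH 7.4-7.5 with Yo-Pro, stimulated with BzATP; compound added 8 min after agonist. Fluorescence followed for 20 min on FLIPR; max-minus-min change gave % inhibition, IC50 by logistic fit.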
Consider `COc1cn(Cc2cc(F)c(F)c(F)c2)c(Nc2cc3scnc3cc2C)nc1=O` [Compound I-0935], for which the IC50 was 0.006 µM.

In the case of `COc1cn(Cc2ccc(F)c(Cl)c2)c(Nc2cc(-c3ncco3)ccc2C)cc1=O` [Compound I-0953], the IC50 amounted to 0.025 µM.

Turning to `COc1cn(Cc2cc(F)cc(F)c2)c(Nc2cc3ncccc3cc2C)nc1=O` [Compound I-0774], the 50% inhibitory concentration (IC50) came to 0.11 µM.

As for `COc1cn(Cc2ccc(F)c(Cl)c2)c(Nc2cc(C)c(C)cc2C)nc1=O` [Compound I-0358], the IC50 was 0.16 µM.

In the case of `Cc1cc(OC(F)F)c(C)cc1Nc1nc(=O)c(F)cn1Cc1cc(F)cc(F)c1` [Compound I-0836], the IC50 was determined as 0.002 µM.

For the compound `Cc1cc2c(cc1Nc1nc(=O)c(Cl)cn1Cc1ccccc1)OCCO2` [Compound I-0370], the IC50 was 0.047 µM.

In the case of `COc1cn(Cc2ccc(Cl)cc2)c(Nc2cc(C)c(C)cc2C)nc1=O` [Compound I-0193], the IC50 is 0.018 µM.

In the case of `COc1cn(Cc2cc(F)cc(F)c2)c(Nc2c(C)ccc(C)c2F)nc1=O` [Compound I-0928], the IC50 was 0.01 µM.

With `COc1cn(Cc2cc(F)cc(F)c2)c(Nc2cccc3c(=O)[nH]ccc23)nc1=O` [Compound I-0652], the IC50 was 0.034 µM.

As for `CCc1cc(F)c(OC)cc1Nc1nc(=O)c(OC)cn1Cc1cc(F)cc(F)c1` [Compound I-0817], the IC50 is 0.004 µM.

The same assay, now with this note: 1321N1 cells stably expressing human P2X7 receptor; BzATP stimulation, Yo-Pro uptake; read-out: IC50 (antagonistic activity for the human P2X7 receptor), class symbol.
Regarding `COc1cn(Cc2ccccc2)c(NCc2ccccc2Oc2ccc(C)cc2)nc1=O` [Compound I-0066], the IC50 lay within 0.5 to 1 µM.

Take `COc1cn(Cc2ccc(F)c(Cl)c2)c(Nc2cc(-c3nnco3)ccc2C)nc1=O` [Compound I-0379]: the IC50 is below 0.01 µM.

`CCc1cc(OC)ccc1Nc1nc(=O)c(OC)cn1Cc1cc(F)c(F)c(F)c1` [Compound I-0573]: the IC50 is below 0.01 µM.

Take `COc1cn(Cc2ccccc2)c(Nc2cc(C)cc3[nH]ccc23)nc1=O` [Compound I-0390]: the IC50 fell in the range of 0.01 to 0.1 µM.

As to `CCc1ccccc1Nc1nc(=O)c(Cl)cn1Cc1ccccc1` [Compound I-0105], the IC50 lay within 0.1 to 0.5 µM.

Regarding `COc1c(C)ccc(Nc2nc(=O)c(OC)cn2Cc2ccc(F)c(Cl)c2)c1C` [Compound I-0419], the IC50 was below 0.01 µM.

Take `Cc1c(Cl)cccc1Nc1nc(=O)c(F)cn1Cc1ccc(F)cc1` [Compound I-0041]: the IC50 is below 0.01 µM.

Regarding `COc1cn(Cc2cc(F)cc(F)c2)c(Nc2ccc(OC(F)F)cc2C)nc1=O` [Compound I-0539], the IC50 lay in the range of 0.01 to 0.1 µM.

For the compound `COc1cn(Cc2cccc(Cl)c2)c(Nc2cc(C)c(F)cc2C)nc1=O` [Compound I-0506], the IC50 is below 0.01 µM.

For `COc1cc(C)c(Nc2nc(=O)c(OC)cn2Cc2cccc(Cl)c2)cc1OC` [Compound I-0208], the IC50 is below 0.01 µM.

`COc1cc(C)c(Nc2nc(=O)c(F)cn2Cc2ccc(F)c(Cl)c2)cc1C` [Compound I-0349]: the IC50 was below 0.01 µM.

Take `COc1cn(Cc2ccccc2)c(Nc2ccccc2C(F)(F)F)nc1=O` [Compound I-0089]: the IC50 lay within 0.5 to 1 µM.

For `COc1cn(Cc2ccccc2)c(Nc2cc(OC(C)C)ccc2C)nc1=O` [Compound I-0320], the IC50 lay in the range of 0.1 to 0.5 µM.

For the compound `COc1ccc(Nc2nc(=O)c(OC)cn2Cc2ccc(F)c(Cl)c2)c(C)c1` [Compound I-0227], the IC50 fell in the range of 0.01 to 0.1 µM.

As to `COc1cn(Cc2cc(F)cc(Cl)c2)c(Nc2cccc(C)c2C)nc1=O` [Compound I-0403], the IC50 lay in the range of 0.01 to 0.1 µM.

In the case of `COCc1cccc(Nc2nc(=O)c(OC)cn2Cc2ccccc2)c1C` [Compound I-0352], the IC50 was 0.1 to 0.5 µM.

Consider `COc1cc(C)c(Nc2nc(=O)c(OC)cn2Cc2ccc(F)c(Cl)c2)cc1C` [Compound I-0230], for which the IC50 was below 0.01 µM.

For `COc1cn(Cc2cc(Cl)cc(Cl)c2)c(Nc2cccc(Cl)c2C)nc1=O` [Compound I-0317], the IC50 is 0.1 to 0.5 µM.

On to `COc1cn(Cc2ccc(F)c(Cl)c2)c(Nc2cc(SC(F)(F)F)ccc2C)nc1=O` [Compound I-0546], for which the IC50 lay in the range of 0.01 to 0.1 µM.

`COc1cc(C)cc(Nc2nc(=O)c(OC)cn2Cc2cc(F)cc(F)c2)c1C` [Compound I-0371]: the IC50 is below 0.01 µM.

As to `Cc1c(Cl)cccc1Nc1nc(=O)c(CC(=O)NC2COC2)cn1Cc1ccccc1` [Compound I-0342], the half-maximal inhibitory concentration (IC50) fell in the range of 0.1 to 0.5 µM.

Take `CCc1cc(OC)ccc1Nc1nc(=O)c(OC)cn1Cc1cccc(Cl)c1` [Compound I-0263]: the IC50 is below 0.01 µM.

Turning to `COc1cn(Cc2ccc(F)cc2)c(Nc2cc(C)c(F)cc2C)nc1=O` [Compound I-0443], the IC50 was below 0.01 µM.

Staying with this assay, now noted: antagonistic activity for the human P2X7 receptor; read-out: IC50.
As to `Cc1ccc(-c2ncco2)cc1Nc1nc(=O)c(F)cn1Cc1ccc(F)c(F)c1` [Compound I-0850], the IC50 was below 0.01 µM.

As to `COc1cn(Cc2cc(F)cc(F)c2)c(Nc2cc(OC(F)F)c(C)cc2C)nc1=O` [Compound I-0879], the IC50 was below 0.01 µM.

`C=C1C(c2cc(Nc3nc(=O)c(F)cn3Cc3cc(F)c(F)c(F)c3)c(C)cc2F)=CC=CN1C` [Compound I-1222]: the IC50 is below 0.01 µM.

Take `COc1ccc(Nc2nc(=O)cnn2Cc2ccc(Cl)c(F)c2)c(C)c1` [Compound I-1268]: the IC50 lay within 0.01 to 0.1 µM.

Regarding `Cn1ccc2c(Nc3nc(=O)c(F)cn3Cc3cc(F)cc(F)c3)cccc21` [Compound I-1021], the IC50 was below 0.01 µM.

`Cc1cc(C)c(Nc2nc(=O)c(F)cn2Cc2cc(F)c(F)c(F)c2)cc1CO` [Compound I-1110]: the IC50 was below 0.01 µM.

For `COc1ccc(C)c(Nc2nc(=O)c(C(=O)O)cn2Cc2cc(F)c(F)c(F)c2)c1` [Compound I-1128], the half-inhibitory concentration (IC50) lay in the range of 0.01 to 0.1 µM.

On to `COc1cc(C)c(Nc2c(Cl)c(=O)c(OC)cn2Cc2ccc(F)c(Cl)c2)cc1C` [Compound I-0964], for which the IC50 lay in the range of 0.1 to 0.5 µM.

In the case of `Cn1ccc2c(Nc3nc(=O)c(F)cn3Cc3cc(F)c(F)c(F)c3)cccc21` [Compound I-1018], the IC50 is below 0.01 µM.

Turning to `COc1cn(Cc2cc(F)cc(F)c2)c(Nc2cc(OC(F)F)ccc2C)nc1=O` [Compound I-0874], the IC50 is 0.01 to 0.1 µM.

For the compound `Cc1cn(Cc2ccc(F)c(F)c2)c(Nc2ccc3[nH]ccc3c2C)nc1=O` [Compound I-1168], the IC50 was below 0.01 µM.

With `CCOc1cc(C)c(Nc2nc(=O)c(F)cn2Cc2cc(F)c(F)c(F)c2)cc1F` [Compound I-1038], the IC50 lay in the range of 0.01 to 0.1 µM.

Take `Cc1cc2c(cc1Nc1nc(=O)c(F)cn1Cc1ccc(F)c(F)c1)COC2` [Compound I-1028]: the IC50 was below 0.01 µM.

For `COc1cn(Cc2cc(F)cc(F)c2)c(Nc2cc(-c3cccnc3)ccc2C)nc1=O` [Compound I-0766], the IC50 was below 0.01 µM.

With `COc1cn(Cc2cccc(F)c2)c(Nc2cccc(C)c2Cl)nc1=O` [Compound I-0643], the IC50 lay within 0.01 to 0.1 µM.

In the case of `COc1cc(F)c(Nc2nc(=O)cnn2Cc2cc(F)c(F)c(F)c2)cc1OC` [Compound I-1258], the IC50 is below 0.01 µM.

Turning to `COc1cn(Cc2cccc(F)c2)c(Nc2cccc(OC(F)F)c2C)nc1=O` [Compound I-0641], the IC50 was 0.01 to 0.1 µM.

In the case of `COc1ccc(C)c(Nc2cc(=O)c(OC)cn2Cc2ccc(F)c(Cl)c2)c1` [Compound I-0947], the half-inhibitory concentration (IC50) is 0.01 to 0.1 µM.

As for `CCOc1ccc(C)c(Nc2nc(=O)c(OC)cn2Cc2cc(F)c(F)c(F)c2)c1` [Compound I-0862], the IC50 was below 0.01 µM.

For `Cc1cc2[nH]ncc2cc1Nc1nc(=O)c(F)cn1Cc1ccc(F)c(Cl)c1` [Compound I-1093], the IC50 was 0.01 to 0.1 µM.

For the compound `CCc1cc(OC)c(OC)cc1Nc1nc(=O)c(OC)cn1Cc1cc(F)c(F)c(F)c1` [Compound I-0908], the IC50 is below 0.01 µM.

For `COc1ccc(Nc2cc(=O)c(OC)cn2Cc2ccccc2)c(C)c1` [Compound I-0959], the IC50 was 0.5 to 1 µM.

In the case of `CCOc1cc(Nc2nc(=O)c(OC)cn2Cc2ccccc2)c(C)cc1F` [Compound I-0918], the IC50 lay in the range of 0.01 to 0.1 µM.

On to `COCc1cn(Cc2cc(F)c(F)c(F)c2)c(Nc2cc3c(cc2C)COC3)nc1=O` [Compound I-1126], for which the IC50 was in the range of 0.01 to 0.1 µM.

As for `COCc1cn(Cc2cc(F)c(F)c(F)c2)c(Nc2cc(-c3nnco3)ccc2C)nc1=O` [Compound I-1131], the IC50 lay within 0.01 to 0.1 µM.

`Cc1c(CO)cccc1Nc1nc(=O)c(F)cn1Cc1cc(F)c(F)c(F)c1` [Compound I-1177]: the IC50 was below 0.01 µM.

For the compound `COc1cn(Cc2ccccc2)c(Nc2cccc3c(=O)n(C)ccc23)nc1=O` [Compound I-0901], the IC50 is 0.1 to 0.5 µM.

With `COc1cn(Cc2ccccc2)c(Nc2cc(OC3CC3)ccc2C)nc1=O` [Compound I-0888], the IC50 was 0.01 to 0.1 µM.

In the case of `COc1cn(Cc2ccc(Cl)s2)c(Nc2cc(C)c(C)cc2C)nc1=O` [Compound I-0808], the IC50 was below 0.01 µM.

Regarding `COc1cn(Cc2ccc(F)c(Cl)c2)c(Nc2cc(-c3cnccn3)ccc2C)nc1=O` [Compound I-0664], the IC50 was below 0.01 µM.

As to `COc1cn(Cc2cc(F)cc(Cl)c2)c(Nc2cc(OC3CC3)ccc2C)nc1=O` [Compound I-0891], the IC50 lay in the range of 0.01 to 0.1 µM.

In the case of `Cc1ccccc1Nc1nc(=O)c(F)cn1Cc1cc(F)c(F)c(F)c1` [Compound I-1082], the 50% inhibitory concentration (IC50) was below 0.01 µM.

As to `CCc1ccc(Nc2nc(=O)c(F)cn2Cc2cc(F)cc(F)c2)c(C)c1` [Compound I-1228], the IC50 was below 0.01 µM.

For `COc1ccc(Nc2nc(=O)cnn2Cc2ccc(F)c(Cl)c2)c(C)c1` [Compound I-1270], the IC50 was below 0.01 µM.

As for `COc1cn(Cc2cc(F)c(F)c(F)c2)c(Nc2ccccc2C)nc1=O` [Compound I-1097], the IC50 was in the range of 0.01 to 0.1 µM.

With `Cc1ccc(Cl)c(Nc2nc(=O)c(F)cn2Cc2cc(F)c(F)c(F)c2)c1` [Compound I-1195], the IC50 is below 0.01 µM.

In the case of `Cc1cc(N(C)C)ccc1Nc1nc(=O)c(F)cn1Cc1cc(F)c(F)c(F)c1` [Compound I-1242], the IC50 is below 0.01 µM.

With `COc1cn(Cc2ccc(F)c(F)c2)c(Nc2cc(Cl)cc3[nH]ccc23)nc1=O` [Compound I-0820], the IC50 lay within 0.01 to 0.1 µM.
